{"source": "patent US20090233937A1", "about": "(TAKEDA PHARMACEUTICAL COMPANY LIMITED, priority 2008, published 2009)"}
{"target": "T1, EGFR kinase (EGFR intracellular domain) (Homo sapiens, UniProt P00533)", "T1 construct": "made in house; host or cells: SF-21 insect cells infected with recombinant baculovirus BAC-EGFR", "T1 sequence (P00533 669-1210)": "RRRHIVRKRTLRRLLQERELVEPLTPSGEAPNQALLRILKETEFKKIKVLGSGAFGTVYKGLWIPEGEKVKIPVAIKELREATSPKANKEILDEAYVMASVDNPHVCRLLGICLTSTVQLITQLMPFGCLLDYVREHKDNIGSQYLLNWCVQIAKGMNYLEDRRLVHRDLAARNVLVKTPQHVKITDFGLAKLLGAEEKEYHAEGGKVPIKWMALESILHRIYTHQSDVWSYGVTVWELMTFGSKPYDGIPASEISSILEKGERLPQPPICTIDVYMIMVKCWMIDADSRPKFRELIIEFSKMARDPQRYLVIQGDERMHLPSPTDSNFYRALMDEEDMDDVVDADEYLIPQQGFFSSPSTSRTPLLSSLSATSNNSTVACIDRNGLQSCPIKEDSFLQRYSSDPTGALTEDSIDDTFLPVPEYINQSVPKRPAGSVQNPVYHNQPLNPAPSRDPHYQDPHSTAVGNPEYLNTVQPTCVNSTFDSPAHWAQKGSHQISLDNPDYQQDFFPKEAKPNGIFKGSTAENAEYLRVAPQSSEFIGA", "assay": "Determination of EGFR kinase inhibitory activity", "format": "biochemical", "parameters": "concentration or dose not given beside the values", "conditions": "compound at 1.0 μL (so in the source), [γ-32P]ATP, poly-Glu:Tyr (4:1) substrate", "procedure": "Human EGFR gene was cloned by RT-PCR using total RNA prepared from A431 cells as a template. The primer used for RT-PCR was prepared in consideration of the information of nucleotide sequence (Genbank Accession No. X00588) of EGFR gene by adding a nucleotide sequence encoding DYKDDDD peptide and a restriction enzyme recognition sequence to a nucleotide sequence (corresponding to 2191-3819 of Genbank Accession No. X00588 as a base, 669-1210 amino acids of Genbank Accession No. NP_005219 as a protein) encoding the EGFR intracellular domain region such that the protein contains an N-terminal DYKDDDD peptide tag. The primer nucleotide sequence is shown below.\n(§1) SF-21 cells were sown at 1×10^6 cells/mL in Sf-900II SFM medium (1 L, Invitrogen) containing 10% fetal bovine serum (trace), 50 mg/L gentamicin (Invitrogen) and 0.1% Pluronic F-68 (Invitrogen), and shaking culture was performed using a 2 L volume Erlenmeyer flask at 27° C., 100 rpm. After culturing for 24 hrs, recombinant baculovirus BAC-EGFR (13.4 mL) was added, and the mixture was further cultured for 3 days. The culture medium was centrifuged at 2,000 rpm for 5 min to give virus-infected cells. The infected cells were washed with a phosphate buffered saline (Invitrogen), centrifuged under the same conditions, and the cells were preserved at −80° C. The cryopreserved cells were thawed in ice, suspended in buffer A (50 mM Tris buffer (30 mL, pH 7.4) containing 20% glycerol, 0.15 M NaCl) supplemented with Complete Protease Inhibitor (Boehringer), and ruptured 3 times with a Polytron homogenizer (Kinematica) at 20,000 rpm for 30 sec. The ruptured solution was clarified by centrifugation at 40,000 rpm for 30 min, and filtered with a 0.45 μm filter. The filtrate was passed through a column packed with Anti-FLAG M2 Affinity Gel (4 mL, Sigma-Aldrich) at a flow rate of about 0.5 mL/min. The column was washed with buffer A, and eluted with buffer A containing 100 μg/mL of FLAG peptide. The eluent was concentrated with Vivaspin 20 (Vivascience) having a molecular weight cut off of 30K. The concentrate was purified by gel filtration using Hi Load 16/60 Superdex 200 pg (GE Healthcare Bioscience) equilibrated with buffer A. The fractions containing EGFR intracellular domain were collected and cryopreserved at −80° C.\nEGFR kinase reaction was performed using a 96 well plate. As a buffer for kinase reaction, a buffer having a composition of 50 mM Tris-HCl (pH 7.5), 5 mM MnCl2, 2 mM dithiothreitol, 0.01% Tween-20 was used. The compound of the present invention was dissolved in dimethyl sulfoxide (DMSO), and diluted with the kinase reaction buffer so that DMSO concentration would be 0.1% during kinase reaction. This compound solution (10 μL) was mixed with a kinase reaction buffer (20 μL) containing EGFR intracellular domain (0.625 μg/mL) obtained in Experimental Example 2B and polypeptide substrate poly-Glu:Tyr (4:1) (Sigma Ltd., 12.5 μg/mL), and the mixture was stood at room temperature for 5 min. […] A kinase reaction was performed at room temperature for 10 min, and the kinase reaction was quenched by addition of 20% TCA solution (50 μL). The mixture after completion of the reaction was stood at room temperature for 30 min, and acid insoluble fractions in the mixture after completion of the reaction were collected in a 96 well GF/C filter plate (PerkinElmer) using a cell harvester (PerkinElmer). Thereafter, the filter containing the acid insoluble fractions was washed with 3% phosphoric acid solution. After washing, the filter plate was dried at 45° C. for 60 min, and 25 μL of MicroScinti 0 (PerkinElmer) was added. The radioactivity was measured using TopCount (PerkinElmer). EGFR kinase inhibitory rate (%) of the test compound was calculated by the following formula:\nInhibitory rate (%)=(1−(count of test compound−blank)÷(control−blank))×100", "units": {"inhibitory rate (%) at 1.0 μL": "%"}}
{"smiles": "Cn1ccc2ncnc(Nc3ccc(Oc4cccc5sncc45)c(Cl)c3)c21", "note": "[Example 1, N-[4-(1,2-benzoisothiazol-4-yloxy)-3-chlorophenyl]-5-methyl-5H-pyrrolo[3,2-d]pyrimidin-4-amine]", "inhibitory rate (%) at 1.0 μL": 99}
{"smiles": "CC(C)(CO)C(=O)NCCn1ccc2ncnc(Nc3ccc(Oc4cccc5sncc45)c(Cl)c3)c21", "note": "[Example 10, N-[2-(4-{[4-(1,2-benzoisothiazol-4-yloxy)-3-chlorophenyl]amino}-5H-pyrrolo[3,2-d]pyrimidin-5-yl)ethyl]-3-hydroxy-2,2-dimethylpropanamide]", "inhibitory rate (%) at 1.0 μL": 98}
{"smiles": "CC(=O)NCCn1ccc2ncnc(Nc3ccc(Oc4cccc5nscc45)c(Cl)c3)c21", "note": "[Example 12, N-[2-(4-{[4-(2,1-benzoisothiazol-4-yloxy)-3-chlorophenyl]amino}-5H-pyrrolo[3,2-d]pyrimidin-5-yl)ethyl]acetamide]", "inhibitory rate (%) at 1.0 μL": 95}
{"smiles": "CS(=O)(=O)CC(=O)NCCn1ccc2ncnc(Nc3ccc(Oc4cccc5sncc45)c(Cl)c3)c21.CS(=O)(=O)O", "note": "[Example 24, N-[2-(4-{[4-(1,2-benzoisothiazol-4-yloxy)-3-chlorophenyl]amino}-5H-pyrrolo[3,2-d]pyrimidin-5-yl)ethyl]-2-(methylsulfonyl)acetamide methanesulfonate]", "inhibitory rate (%) at 1.0 μL": 100}
{"smiles": "OCCn1ccc2ncnc(Nc3ccc(Oc4cccc5sncc45)c(Br)c3)c21", "note": "[Example 45]", "inhibitory rate (%) at 1.0 μL": 99}
{"smiles": "CC(C)(N)CC(=O)NCCn1ccc2ncnc(Nc3ccc(Oc4cccc5sncc45)c(Cl)c3)c21", "note": "[Example 62, 3-amino-N-[2-(4-{[4-(1,2-benzoisothiazol-4-yloxy)-3-chlorophenyl]amino}-5H-pyrrolo[3,2-d]pyrimidin-5-yl)ethyl]-3-methylbutanamide]", "inhibitory rate (%) at 1.0 μL": 99}
{"target": "T2, HER2 kinase (HER2 intracellular domain) (Homo sapiens, UniProt P04626)", "T2 construct": "made in house; host or cells: SF-21 insect cells infected with recombinant baculovirus BAC-HER2", "T2 sequence (P04626 676-1255)": "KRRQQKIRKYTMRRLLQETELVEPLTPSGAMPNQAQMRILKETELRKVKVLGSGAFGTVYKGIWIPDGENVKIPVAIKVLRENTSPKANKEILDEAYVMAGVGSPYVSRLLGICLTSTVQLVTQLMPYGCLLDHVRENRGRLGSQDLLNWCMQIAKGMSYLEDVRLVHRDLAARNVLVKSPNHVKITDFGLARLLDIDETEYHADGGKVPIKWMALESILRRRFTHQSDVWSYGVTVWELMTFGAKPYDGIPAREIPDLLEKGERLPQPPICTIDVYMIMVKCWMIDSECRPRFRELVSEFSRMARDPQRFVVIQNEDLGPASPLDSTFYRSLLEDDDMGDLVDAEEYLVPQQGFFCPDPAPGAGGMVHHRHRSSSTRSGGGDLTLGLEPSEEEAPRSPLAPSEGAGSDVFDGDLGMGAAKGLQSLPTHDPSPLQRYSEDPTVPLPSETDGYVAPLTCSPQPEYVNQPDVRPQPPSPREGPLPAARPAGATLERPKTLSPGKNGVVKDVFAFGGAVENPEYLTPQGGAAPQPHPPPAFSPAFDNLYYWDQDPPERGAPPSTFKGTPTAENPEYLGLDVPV", "assay": "Determination of HER2 kinase inhibitory activity", "format": "biochemical", "parameters": "concentration or dose not given beside the values", "conditions": "compound at 1.0 μL (so in the source), [γ-32P]ATP, poly-Glu:Tyr (4:1) substrate", "procedure": "Human HER2 gene was cloned by RT-PCR using total RNA prepared from MCF7 cells as a template. The primer used for RT-PCR was prepared in consideration of the information of nucleotide sequence (Genbank Accession No. M11730) of HER2 gene by adding a nucleotide sequence encoding DYKDDDD peptide and a restriction enzyme recognition sequence to a nucleotide sequence (corresponding to 2176-3918 of Genbank Accession No. M11730 as a base, 676-1255 amino acids of Genbank Accession No. NP_004439 as a protein) encoding the HER2 intracellular domain region such that the protein contains an N-terminal DYKDDDD peptide tag. The primer nucleotide sequence is shown below.\nas §1, with “hr,” for “hrs,”, “BAC-HER2” for “BAC-EGFR”, “HER2” for “EGFR”\nHER2 kinase reaction was performed using a 96 well plate. As a buffer for kinase reaction, a buffer having a composition of 50 mM Tris-HCl (pH 7.5), 5 mM MnCl2, 2 mM dithiothreitol, 0.01% Tween-20 was used. The compound of the present invention was dissolved in dimethyl sulfoxide (DMSO), and diluted with the kinase reaction buffer so that DMSO concentration would be 0.1% during kinase reaction. This compound solution (10 μL) was mixed with a kinase reaction buffer (20 μL) containing HER2 intracellular domain (0.625 μg/mL) obtained in Experimental Example 1B and polypeptide substrate poly-Glu:Tyr (4:1) (Sigma Ltd., 12.5 μg/mL), and the mixture was stood at room temperature for 5 min. Then, a kinase reaction buffer (20 μL) containing 125 μM ATP and 45 μCi/mL [γ-^32P]ATP was added, and the kinase reaction was initiated with 50 μL of the final reaction mixture. A kinase reaction was performed at room temperature for 10 min, and the kinase reaction was quenched by addition of 20% TCA solution (50 μL). The mixture after completion of the reaction was stood at room temperature for 30 min, and acid insoluble fractions in the mixture after completion of the reaction were collected in a 96 well GF/C filter plate (PerkinElmer) using a cell harvester (PerkinElmer). Thereafter, the filter containing the acid insoluble fractions was washed with 3% phosphoric acid solution. After washing, the filter plate was dried at 45° C. for 60 min, and 25 μL of MicroScinti 0 (PerkinElmer) was added. The radioactivity was measured using TopCount (PerkinElmer). HER2 kinase inhibitory rate (%) of the test compound was calculated by the following formula: […]", "units": {"inhibitory rate (%) at 1.0 μL": "%"}}
{"smiles": "Cl.Cn1c(Cl)cc2ncnc(Nc3ccc(Oc4cccc5sncc45)c(Cl)c3)c21", "note": "[Example 2, N-[4-(1,2-benzoisothiazol-4-yloxy)-3-chlorophenyl]-6-chloro-5-methyl-5H-pyrrolo[3,2-d]pyrimidin-4-amine hydrochloride]", "inhibitory rate (%) at 1.0 μL": 100}
{"smiles": "CC(=O)NCCn1ccc2ncnc(Nc3ccc(Oc4cccc5sncc45)c(Cl)c3)c21", "note": "[Example 4, N-[2-(4-{[4-(1,2-benzoisothiazol-4-yloxy)-3-chlorophenyl]amino}-5H-pyrrolo[3,2-d]pyrimidin-5-yl)ethyl]acetamide]", "inhibitory rate (%) at 1.0 μL": 100}
{"smiles": "Clc1cc(N2CCn3ccc4ncnc2c43)ccc1Oc1cccc2sncc12", "note": "[Example 13, 4-[4-(1,2-benzoisothiazol-4-yloxy)-3-chlorophenyl]-5,6-dihydro-4H-pyrrolo[3,2,1-de]pteridine]", "inhibitory rate (%) at 1.0 μL": 100}
{"smiles": "OCCn1ccc2ncnc(Nc3ccc(Oc4ccc5cnsc5c4)c(Cl)c3)c21", "note": "[Example 20, 2-(4-{[4-(1,2-benzoisothiazol-6-yloxy)-3-chlorophenyl]amino}-5H-pyrrolo[3,2-d]pyrimidin-5-yl)ethanol]", "inhibitory rate (%) at 1.0 μL": 98}
{"smiles": "Cc1cc(Nc2ncnc3ccn(CCO)c23)ccc1Oc1cccc2sncc12", "note": "[Example 31, 2-(4-{[4-(1,2-benzoisothiazol-4-yloxy)-3-methylphenyl]amino}-5H-pyrrolo[3,2-d]pyrimidin-5-yl)ethanol]", "inhibitory rate (%) at 1.0 μL": 100}
{"smiles": "COc1cc(Nc2ncnc3ccn(CCO)c23)ccc1Oc1cccc2sncc12", "note": "[Example 44, 2-(4-{[4-(1,2-benzoisothiazol-4-yloxy)-3-methoxyphenyl]amino}-5H-pyrrolo[3,2-d]pyrimidin-5-yl)ethanol]", "inhibitory rate (%) at 1.0 μL": 98}
{"smiles": "CC(C)(CO)C(=O)NCCn1ccc2ncnc(Nc3cc(F)c(Oc4cccc5sncc45)c(Cl)c3)c21", "note": "[Example 52, N-[2-(4-{[4-(1,2-benzoisothiazol-4-yloxy)-3-chloro-5-fluorophenyl]amino}-5H-pyrrolo[3,2-d]pyrimidin-5-yl)ethyl]-3-hydroxy-2,2-dimethylpropanamide]", "inhibitory rate (%) at 1.0 μL": 99}
{"smiles": "CC(C)(N)C(=O)NCCn1ccc2ncnc(Nc3ccc(Oc4cccc5sncc45)c(Cl)c3)c21", "note": "[Example 60, N-[2-(4-{[4-(1,2-benzoisothiazol-4-yloxy)-3-chlorophenyl]amino}-5H-pyrrolo[3,2-d]pyrimidin-5-yl)ethyl]-2-methylalaninamide]", "inhibitory rate (%) at 1.0 μL": 100}
